Here are results for five compounds from paper PMC5433701, “SPR-based fragment screening with neurotensin receptor 1 generates novel small molecule ligands” (PLoS ONE, 2017).

A short description of data set [1]: pKa determination. Type of data set: physicochemical.
Data set [2] deals with NTS1-H4 receptor. The experiment in a line: SPR competition of NT8-13 and SR142948 on NTS1-H4 receptor. Type of data set: binding, rat. Conditions: 100 nM NT8-13 then 100 nM SR142948 injected subsequently. On the procedure: Supplementary file pone.0175842.s003.pdf: S3 Fig Competition of neurotensin peptide NT8-13 and antagonist SR142948 on the NTS1-H4 receptor. NT8-13 agonist (saturating concentration of 100 nM) and antagonist SR142948 (saturating concentration of 100 nM) were injected subsequently over the NTS1-H4 receptor-coated surface. No binding of SR142948 was detected on the NTS1-H4 receptor that had been saturated previously by agonist NT8-13 peptide, indicating complete occupancy of the binding site and binding to the same binding site. (PDF) Click here for additional data file.

For data set [3], the target named is rat NTS1-H4 receptor. The experiment in a line: SPR kinetic binding of reference ligands on captured NTS1-H4 receptor. The method, then: All SPR binding experiments were performed on Biacore® 3000, T200 and Biacore 4000 (GE Healthcare, Uppsala, Sweden) instruments at 15°C in a running buffer composed of 20 mM Tris, 150 mM NaCl, 0.01% (v/v) L-MNG, 2% (v/v) DMSO, pH 8.0, at flow of 30 μl·min^-1. Running buffer was prepared freshly every day and filtered with Express™Plus Steritop filters with 0.22 μm cut off (Millipore, Billerica, MA, USA) and degassed prior to SPR analysis. Dose-response experiments for peptides were performed in the buffer without DMSO, as the analyzed peptide concentration range was in nM range and it was not necessary to work with DMSO in the running buffer to correct for the resonance signals. […]
All SPR data processing and analyses were performed using BiaEvaluation Software (version 1.0 (Biacore 4000) and 4.1 (Biacore 3000)), and GraphPadPrism (version 6.04). All monitored binding resonance signals were corrected regarding DMSO solvent signals and further double-referenced, i. e., signals monitored on the binding active channel were subtracted by signals from the reference channel (sensor surface not modified with any reference protein) and by buffer signals. […]
In general terms: In SPR one partner is held on a chip, and binding of the other changes the refractive index at the surface.

Data set [4] addresses NTS1-H4. Also noted: method as in PMID 25064156. As to conditions: competition with fluorescently labeled NT8-13, NTS1-H4-coated beads; cited from earlier work.

Where two headings read alike, the source gives them in different places.

Consider `COc1cccc(S(=O)(=O)c2ccccc2CC(N)=O)c1` [fragment 2], for which the “pKa1 ± σ” value in data set [1] was “out of range”. Turning to `COc1ccc(Cc2nn[nH]n2)cc1` [fragment 4], the pKa in data set [1] (read-out: pKa1 ± σ) was 4.86 ± 0.08. The term Kd denotes the concentration at which binding is half-saturated. Read a low Kd as tighter binding. Usually Ki stands for the equilibrium dissociation constant of an inhibitor or competing ligand from its target. As for SR142948, the “binding to NTS1-H4 receptor previously saturated by NT8-13” value in data set [2] was “No binding”. In data set [3], this compound gave a Kd of 400 pM. For the same compound, the Ki in data set [4] is 500 pM. For the compound `COc1ccc(N(C(C)C)S(N)(=O)=O)cc1` [fragment 3], the pKa came to 6.49 ± 0.04 in data set [1] (read-out: pKa1 ± σ) and 11.04 ± 0.08 in data set [1] (read-out: pKa2). Regarding `Nc1nnc2c(C(F)(F)F)nc3ccccc3n12` [fragment 1], in data set [1] (read-out: pKa1 ± σ), the pKa stood at 2.14 ± 0.04.
